For one test, the system named is HUVEC. Nature of the test: HUVEC monolayer model of endothelial gap formation (VE-cadherin staining). The class given is cell-based, human. Particulars: for EC gap formation, screening of inflammatory inhibitors: FIG. 8, 5 μM; for EC gap formation induced by VEGF / EC gap formation induced by IL-8 / EC gap formation induced by BK / EC gap formation, agonist alone: 5 μM; for EC gap formation induced by VEGF: 100 ng/ml VEGF; for EC gap formation induced by IL-8: 150 ng/ml IL-8; for EC gap formation induced by BK: 0.5 μM BK; for EC gap formation, agonist alone: no inflammatory mediator. Here is the method:
HUVECs were seeded on coverslips coated with fibronectin (Millipore Sigma) and cultured to confluency. […] HUVECs fixed with 2% cold paraformaldehyde (Electron Microscopy Science) and treated with 0.1% triton X-100 (Fisher) were exposed to a human VE-cadherin antibody (Santa Cruz) followed by the secondary antibody conjugated with Alexa488 (Invitrogen). Coverslips were mounted to slides using the antifade mounting medium with DAPI (Vector Laboratories).

The target of another test is S1PR1 (Homo sapiens, UniProt P21453). Description: S1P1 GPCR cell-based agonist arrestin biosensor assay (Eurofins DiscoverX). Particulars: FIG. 1C. An excerpt:
4-Phenyl-5-trifluoromethyl-thiophene-2-carboxylic acid (1) was first converted in situ to the corresponding acid chloride by treating with oxalyl chloride in the presence of catalytic N,N-dimethyl formamide. […] The structures of Intermediate 3 and Compound I were characterized on the basis of NMR and mass spectrometry.

Test [1] relates to myosin light chain (MLC) phosphorylation. Description: Western blotting of MLC phosphorylation in HUVEC. The class given is cell-based, human. Here is the method: (§1) A monolayer of HUVEC cells following varying treatments were lyzed in RIPA buffer containing protease and phosphatase inhibitors (Pierce Biotechnologies). 20 μg of cell lysate was used for western blotting and probed with antibodies according to the suppliers' recommendations to assess off target effects on several major signaling pathways. Antibodies to p-ERK, ERK, p-PI3K, PI3K, p-FAK, FAK, p-PAK1, PAK1, p-PAK2, PAK2, p-MLC, p-NF-κB, NF-κB were used to probe western blots (Cell Signaling). α-Tubulin (Millipore Sigma) was used as a loading control.
For orientation: In western blotting, separated proteins are transferred to a membrane and probed.

Test [2] concerns MAPK/ERK, PI3K/AKT, NF-κB and vascular permeability regulation pathways. Nature of the test: Off-target effects on key signaling pathways by western blotting in HUVEC. In kind it is cell-based, human. Particulars: versus DMSO control. Here is the method:
as §1

The subject of test [3] is intact rat mesenteric venules. Description: Hydraulic conductivity (Lp) in individually perfused rat mesenteric microvessels. In kind it is in vivo. The procedure:
Experiments were undertaken on mesenteric venules from female Sprague-Dawley rats (2-3-month old, 220-250 g body weight, Sage Laboratory). Inactin hydrate was used for anesthesia through subcutaneous administration. The initial dosage of inactin was 180 mg/kg body weight and an additional 5 mg/dose given as needed. After the rat reached the appropriate plane of anesthesia, determined by the loss of the toe pinch response and the righting reflex, a midline surgical incision was made in the abdominal wall. A loop of the ileum was gently extended from the abdominal cavity and the mesentery was spread over a pillar attached to an animal tray. The upper surface of the mesentery was continuously perfused with mammalian Ringer's solution at 37° C. All experiments were carried out on venules with diameters ranging between […]. Each experiment was performed on a single vessel with one experiment per animal. Euthanasia was performed through bilateral thoracotomy while animals were under anesthesia. Microvessel permeability was assessed by measuring one of the permeability coefficients, hydraulic conductivity, Lp, using the modified […] technique. The assumptions and limitations of the method have been evaluated in detail (31-33). […] The initial water flux (Jv) per unit area of microvessel wall (S), (Jv/S)0, was calculated from the velocity of the marker cell after the vessel was occluded, the vessel radius, and the length between the marker cell and the occlusion site. Microvessel Lp was calculated from the Starling equation, Lp=(Jv/S)/ΔP, where ΔP represents the pressure difference between the hydrostatic pressure applied to the microvessel and the effective oncotic pressure generated from the albumin in the perfusate, assuming the tissue hydrostatic and oncotic pressures are negligible (31). In each experiment, baseline Lp and the stimulus-induced Lp changes were measured in the same vessel, which allows the changes to be compared with its own control. […]

The test system of test [4] is S1PR1 in HEK293A-S1P1-GFP cells. Nature of the test: S1PR1 internalization assay. In kind it is cell-based. Particulars: 5 μM W146. The procedure:
[…] cells were plated on collagen-coated coverslips (30). Cells were cultured overnight in DMEM with 2% charcoal-stripped serum. Prior to the experiment, cells were cultured in serum-free DMEM for 1.5 hours.

The subject of another test is A375M-GFP melanoma cells. Description: Experimental lung metastasis model, A375M-GFP. In kind it is in vivo, Athymic Foxn1nu nude mice. Particulars: 5 mg/kg intraperitoneally 6, 12 or 18 hours before cells, day 29; control 62. Here is the method:
[…] lacking Compound I (Lipo) vehicle control, for 6, 12 or 18 hours prior to intravenous injection of 1 million A375M-GFP cells through the tail vein. […] For experiments using UACC 903M-GFP and 1205Lu-GFP cells, 15 mg/kg of the nanoliposomal formulation were given 6 hours before cancer cell injection. Body weight was monitored to ensure no significant toxicity during the experimental metastasis assay. On day 29, whole lungs were removed and imaged by fluorescent microscopy to quantify the numbers of metastatic nodules in a double-blinded manner.

SMILES strings stand for the structures.

Chain of S1PR1 (P21453 whole entry): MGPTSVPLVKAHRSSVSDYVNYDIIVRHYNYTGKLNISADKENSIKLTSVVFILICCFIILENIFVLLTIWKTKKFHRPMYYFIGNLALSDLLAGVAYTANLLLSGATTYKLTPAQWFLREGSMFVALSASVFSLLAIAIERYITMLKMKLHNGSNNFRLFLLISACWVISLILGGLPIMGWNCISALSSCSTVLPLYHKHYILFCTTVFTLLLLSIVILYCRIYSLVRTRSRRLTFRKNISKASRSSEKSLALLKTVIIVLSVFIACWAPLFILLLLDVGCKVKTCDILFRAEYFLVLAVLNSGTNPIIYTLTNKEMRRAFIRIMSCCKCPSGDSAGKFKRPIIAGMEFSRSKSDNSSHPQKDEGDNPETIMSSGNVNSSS

On to `CC(=O)N1CCN(C(=O)/C=C/c2ccc(Sc3ccccc3C(C)C)c([N+](=O)[O-])c2)CC1` [Compound A286982], for which the “EC gap formation, screening of inflammatory inhibitors” value in the test with HUVEC is given as “did not decrease EC gap formation”.
The EC50 is the concentration needed to bring the measured effect to its halfway point. Take `Oc1cccc(-c2noc(-c3cc(-c4ccccc4)c(C(F)(F)F)s3)n2)c1` [Compound I, 3-[5-(4-Phenyl-5-trifluoromethyl-thiophen-2-yl)-[1,2,4]oxadiazol-3-yl]-phenol]: on S1PR1, the midpoint of the response, the EC50, lay at 43 nM. Besides, in the test with HUVEC, the “EC gap formation induced by VEGF” value is given as “reduced the EC gap formation”; the “EC gap formation induced by IL-8” value is listed as “reduced the EC gap formation”; the “EC gap formation induced by BK” value is given as “reduced the EC gap formation”; the “EC gap formation, agonist alone” value is given as “did not affect EC gap formation”. Moreover, in the test with HUVEC, the “EC gap formation, screening of inflammatory inhibitors” value is “inhibited EC gap formation”. Further, in the test with HUVEC (confluent HUVEC monolayer), the “endothelial gap formation induced by MIC-1 and BK” value is listed as “inhibited the endothelial gap formation”; the “endothelial gap formation induced by MIC-1 and VEGF” value is given as “inhibited the endothelial gap formation”. In test [1] (FIG. 15E), the “MLC phosphorylation induced by MIC-1 and inflammatory mediators” value is reported as “inhibited the MLC phosphorylation”. In test [1] (HUVEC, western blotting), the “pMLC levels raised by BK, VEGF or IL-8” value is “reverse and decrease the pMLC levels”; the “pMLC levels, Compound I alone” value was “did not increase pMLC levels”. For the same compound, the “levels or activity of biomarker proteins in signaling pathways (off-target effects)” value in test [2] is recorded as “No significant changes”.
In the case of `CCCCCCc1cccc(NC(=O)[C@H](N)CCP(=O)(O)O)c1` [Compound W146], the “effect of W146 on the formulation's inhibition of PAF-induced Lp increase” value in test [3] (W146 10 μM) is given as “abolished the effect of the nanoliposomal formulation”. Further, the “effect of W146 on Compound I inhibition of BK-mediated EC gap formation” value in the test with HUVEC (5 μM W146) is given as “blocked the effect of Compound I”. In addition, the “effect of W146 on internalization mediated by Compound I and SEW2871” value in test [4] is given as “blocked”.
In the case of `COC(=O)c1ccc2c(c1)NC(=O)/C2=C(\Nc1ccc(N(C)C(=O)CN2CCN(C)CC2)cc1)c1ccccc1` [Nintedanib], the “EC gap formation, screening of inflammatory inhibitors” value with HUVEC is given as “did not decrease EC gap formation”.
On the same count and under the same terms, the same measure for `O=C(Nc1c(Cl)cncc1Cl)c1ccc(OC(F)F)c(OCC2CC2)c1` [Roflumilast]: “did not decrease EC gap formation”.
As for `FC(F)(F)c1cccc(-c2noc(-c3cc(-c4ccccc4)c(C(F)(F)F)s3)n2)c1` [SEW2871], the “PAF-induced mean Lp” value in test [3] (PAF 10 nM in presence of SEW2871 10 PM (printed), n=6) is listed as 1.73±0.15 times that of the control. Also, the “effect on baseline Lp” value in test [3] (SEW2871 10 PM (printed), perfusion 30 minutes) was “did not change the baseline Lp”. Also, in the test on HUVEC, the “EC gap formation induced by VEGF” value is recorded as “reduced the EC gap formation”; the “EC gap formation induced by IL-8” value is reported as “reduced the EC gap formation”; the “EC gap formation induced by BK” value is “reduced the EC gap formation”; the “EC gap formation, agonist alone” value was “did not affect EC gap formation”. Also, the “EC gap formation, screening of inflammatory inhibitors” value in the test on HUVEC is given as “inhibited EC gap formation”. In addition, the “endothelial gap formation induced by MIC-1 and BK” value in the test with HUVEC (confluent HUVEC monolayer) is recorded as “inhibited the endothelial gap formation”. In addition, the “metastatic nodules in the lung” value with A375M-GFP melanoma cells is given as 17-27.
In the case of `C=CC[C@@H]1/C=C(\C)C[C@H](C)C[C@H](OC)[C@H]2O[C@@](O)(C(=O)C(=O)N3CCCC[C@H]3C(=O)O[C@H](/C(C)=C/[C@@H]3CC[C@@H](O)[C@H](OC)C3)[C@H](C)[C@@H](O)CC1=O)[C@H](C)C[C@@H]2OC` [Tacrolimus], in the test with HUVEC, the “EC gap formation, screening of inflammatory inhibitors” value is “did not decrease EC gap formation”.

Values taken from patent publication US20230233532A1, “SPHINGOSINE-1-PHOSPHATE RECEPTOR 1 AGONIST AND LIPOSOMAL FORMULATIONS THEREOF” (The Penn State Research Foundation, priority 2020, published 2023).
